{"source": "patent US11130793B2", "about": "“GLP-1/GLP-2 dual agonists” (Zealand Pharma A/S, priority 2016, dated 2021)", "key": {"human GLP-1 receptor": {"target": "T1, human GLP-1 receptor (Homo sapiens, UniProt P43220)", "T1 construct": "expressed in transfected cells", "T1 sequence (P43220 24-463)": "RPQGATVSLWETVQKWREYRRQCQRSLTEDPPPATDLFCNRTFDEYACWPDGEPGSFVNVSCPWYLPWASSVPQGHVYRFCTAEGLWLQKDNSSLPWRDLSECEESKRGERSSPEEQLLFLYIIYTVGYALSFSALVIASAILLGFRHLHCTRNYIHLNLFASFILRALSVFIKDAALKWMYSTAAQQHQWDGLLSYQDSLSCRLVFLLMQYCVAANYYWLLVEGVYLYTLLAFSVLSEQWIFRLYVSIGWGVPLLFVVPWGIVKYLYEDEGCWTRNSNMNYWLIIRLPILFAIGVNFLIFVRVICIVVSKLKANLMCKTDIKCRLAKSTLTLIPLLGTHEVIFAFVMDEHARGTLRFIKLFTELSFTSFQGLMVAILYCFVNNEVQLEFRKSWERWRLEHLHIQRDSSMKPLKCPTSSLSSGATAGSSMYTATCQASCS", "assay": "GLP-1 receptor potency assay (cAMP AlphaScreen, HEK293 cells stably expressing GLP-1R)", "format": "cell-based", "conditions": "cAMP response, HEK293 cells expressing human GLP-1R; read-out: EC50 GLP-1", "procedure,_shortened": "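cAMP accumulation was quantified by AlphaScreen in G418-selected HEK293 cells stably transfected with human GLP-1R cDNA. Concentration-response data were normalized between vehicle and positive control. EC50 and maximal response came from 4PL curve fitting.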"}, "[1]": {"test_system": "Normal chow-fed C57BL/6J male mice", "assay": "Effect on fasting glucose and intestinal weight in normal mice", "format": "in vivo", "conditions": "for Small intestinal wet weight: 250 nmol/kg s.c. once daily for 4 days, sacrificed 24 hours after final dosing; for Fasting blood glucose: day 0, fasted mice, after a single s.c. injection, 250 nmol/kg", "method": "Normal chow-fed C57BL/6J male mice were used. The mice were kept in standard housing conditions, light-, temperature-, and humidity-controlled room (12:12 h light-dark cycle, with lights on at 06.00-18.00 h; 20-22° C.; 50-80% relative humidity). Each dosing group consisted of 6 animals. Mice were dosed once daily with 250 nmol/kg with the test compounds or vehicle for 4 days via subcutaneous administration.\nOn day 0 mice were fasted and blood glucose levels measured after a single s.c. injection with peptides. Animals were sacrificed 24 hours after final dosing on day 3, and small intestinal wet weights were measured."}, "human GLP-2 receptor": {"target": "T2, human GLP-2 receptor (Homo sapiens, UniProt O95838, D470N)", "T2 sequence (O95838 1-553 D470N)": "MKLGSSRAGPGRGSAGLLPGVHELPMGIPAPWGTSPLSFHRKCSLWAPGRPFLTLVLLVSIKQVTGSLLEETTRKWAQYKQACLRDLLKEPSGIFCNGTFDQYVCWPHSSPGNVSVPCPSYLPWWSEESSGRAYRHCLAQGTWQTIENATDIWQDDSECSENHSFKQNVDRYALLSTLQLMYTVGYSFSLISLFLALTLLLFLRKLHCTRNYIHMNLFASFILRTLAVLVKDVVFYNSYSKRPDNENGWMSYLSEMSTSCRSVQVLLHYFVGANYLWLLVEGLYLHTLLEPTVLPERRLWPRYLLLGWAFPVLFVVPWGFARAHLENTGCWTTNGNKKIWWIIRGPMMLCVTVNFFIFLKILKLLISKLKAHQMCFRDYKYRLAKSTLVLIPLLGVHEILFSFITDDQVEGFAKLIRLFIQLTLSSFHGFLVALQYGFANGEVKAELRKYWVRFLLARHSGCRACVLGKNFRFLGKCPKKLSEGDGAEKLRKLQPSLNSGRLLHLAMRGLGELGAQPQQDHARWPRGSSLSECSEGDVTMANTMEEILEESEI", "assay": "GLP-2 receptor potency assay (cAMP AlphaScreen, HEK293 cells stably expressing GLP-2R)", "format": "cell-based", "conditions": "cAMP response, HEK293 cells expressing human GLP-2R", "procedure,_shortened": "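EC50 and maximal response were fitted with a 4PL model after normalization to positive control and vehicle. cAMP accumulation was quantified by AlphaScreen in a stable HEK293 clone transfected with human GLP-2 receptor.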"}}, "note": "Square brackets hold non-standard residues; d marks the D form. Peptide text beside a SMILES is read from it. Aib = CC(C)(N)C(=O)O", "data": [{"smiles": "CC[C@H](C)[C@H](NC(=O)[C@H](CC(C)C)NC(=O)[C@H](Cc1c[nH]c2ccccc12)NC(=O)[C@H](CO)NC(=O)[C@@H](NC(=O)[C@H](Cc1ccccc1)NC(=O)[C@H](CC(=O)O)NC(=O)[C@H](CCCNC(=N)N)NC(=O)[C@H](C)NC(=O)[C@H](C)NC(=O)[C@H](CCC(N)=O)NC(=O)[C@H](CCC(=O)O)NC(=O)[C@H](CC(=O)O)NC(=O)[C@H](CC(C)C)NC(=O)[C@@H](NC(=O)[C@@H](NC(=O)[C@H](C)NC(=O)[C@H](CC(C)C)NC(=O)[C@H](CCC(=O)O)NC(=O)[C@H](CO)NC(=O)[C@@H](NC(=O)[C@H](Cc1ccccc1)NC(=O)[C@@H](NC(=O)CNC(=O)[C@H](CCC(=O)O)NC(=O)C(C)(C)NC(=O)[C@@H](N)Cc1c[nH]cn1)[C@@H](C)O)[C@@H](C)O)[C@@H](C)O)[C@@H](C)CC)[C@@H](C)CC)C(=O)N[C@@H](C)C(=O)N[C@@H](Cc1c[nH]cn1)C(=O)N[C@@H](CCCCN)C(=O)N[C@H](C(=O)N[C@H](C(=O)N[C@@H](CC(=O)O)C(=O)O)[C@@H](C)O)[C@@H](C)CC", "note": "[Compound 34] (H-H[Aib]EGTFTSELATILDEQAARDFISWLIAHKITD-OH)", "values": [{"measurement": "EC50", "setting": "human GLP-1 receptor", "result": 0.005, "unit": "nM"}, {"measurement": "Small intestinal wet weight", "setting": "[1]", "result": 0.93, "unit": "g"}, {"measurement": "Fasting blood glucose", "setting": "[1]", "result": 5.62, "unit": "mM"}, {"measurement": "EC50", "setting": "human GLP-2 receptor", "result": 0.049, "unit": "nM"}]}, {"smiles": "CC[C@H](C)[C@H](NC(=O)[C@H](Cc1ccccc1)NC(=O)[C@H](CC(=O)O)NC(=O)[C@H](CCCNC(=N)N)NC(=O)[C@H](C)NC(=O)[C@H](C)NC(=O)[C@H](CCC(N)=O)NC(=O)[C@H](CCC(=O)O)NC(=O)[C@H](CC(=O)O)NC(=O)[C@H](CC(C)C)NC(=O)[C@@H](NC(=O)[C@@H](NC(=O)[C@H](C)NC(=O)[C@H](CC(C)C)NC(=O)[C@H](CCC(=O)O)NC(=O)[C@H](CO)NC(=O)[C@@H](NC(=O)[C@H](Cc1ccccc1)NC(=O)[C@@H](NC(=O)CNC(=O)[C@H](CCC(=O)O)NC(=O)C(C)(C)NC(=O)[C@@H](N)Cc1c[nH]cn1)[C@@H](C)O)[C@@H](C)O)[C@@H](C)O)[C@@H](C)CC)C(=O)N[C@@H](CC(N)=O)C(=O)N[C@@H](Cc1c[nH]c2ccccc12)C(=O)N[C@@H](CC(C)C)C(=O)N[C@@H](CCCCN)C(=O)N[C@@H](C)C(=O)N[C@@H](Cc1c[nH]cn1)C(=O)N[C@@H](CCCCN)C(=O)N[C@H](C(=O)N[C@H](C(=O)N[C@@H](CC(=O)O)C(=O)O)[C@@H](C)O)[C@@H](C)CC", "note": "[Compound 35] (H-H[Aib]EGTFTSELATILDEQAARDFINWLKAHKITD-OH)", "values": [{"measurement": "EC50", "setting": "human GLP-1 receptor", "result": 0.006, "unit": "nM"}, {"measurement": "Small intestinal wet weight", "setting": "[1]", "result": 0.81, "unit": "g"}, {"measurement": "Fasting blood glucose", "setting": "[1]", "result": 5.95, "unit": "mM"}, {"measurement": "EC50", "setting": "human GLP-2 receptor", "result": 0.048, "unit": "nM"}]}]}
